Like-named read-outs stand apart in the source and are kept apart here.
Tested on: H929 human cancer cell lines
Test: Cellular viability / proliferation (Cell TiterGlo, 72 h)
Type: cell-based
Experimental: Cellular Viability of Human Tumor Cell Lines
To evaluate compound effect on cellular proliferation, cells were plated at 1,000 cells/well in 96-well tissue culture plates in a total volume of 90 μL medium supplemented with 10% FBS (Sigma, Saint Louis, Mo.). 24 hours later, 10 μL of compound (in a 2-fold serial dilution) is added to the cells for a top concentration of 50 μM and a final DMSO concentration <1%. After 72 hours, 50 μL of Cell TiterGlo (Promega, Madison, Wis., USA) reagent is added to each well and plates are incubated at room temperature, in the dark, for 30 minutes. Luminescence is measured on a BioTek Cytation 3. Luminescence values are imported into a template in XLFit (Guildford, Surrey, UK) that uses a four-parameter fit to generate an IC50 value for each compound dilution series on the plate.

[1] = Homo sapiens, NCI-H929, 72 h, read-out: GI50 on cellular proliferation of H929 human cancer cell lines, H929 cells, 72 h, Cell TiterGlo, 10% FBS
[2] = read-out: GI50 on cellular proliferation of H929 human cancer cell lines, H929 cells, 72 h, Cell TiterGlo, 10% FBS

Row | Compound | GI50 [1] [nM] | other results
1 | Cc1cc(OCCCc2c3n(c4c(-c5c(C)nn(C)c5C)c(Cl)ccc24)[C@H](C)CN(c2cccc4c(C(N)=O)cn(C)c24)C3=O)cc(C)c1Cl [Example 357, (R)-7-(7-Chloro-10-(3-(4-chloro-3,5-dimethylphenoxy)propyl)-4-methyl-1-oxo-6-(1,3,5-trimethyl-1H-pyrazol-4-yl)-3,4-dihydropyrazino[1,2-a]indol-2(1H)-yl)-1-methyl-1H-indole-3-carboxamide] | 2000 | –
2 | Cc1cc(OCCCc2c3n(c4c(-c5c(C)nn(C)c5C)c(Cl)ccc24)[C@@H](C)CN(c2cn(C)c4ccc(C(=O)O)cc24)C3=O)cc(C)c1Cl [Example 212, (S)-3-(7-chloro-10-(3-(4-chloro-3,5-dimethylphenoxy)propyl)-4-methyl-1-oxo-6-(1,3,5-trimethyl-1H-pyrazol-4-yl)-3,4-dihydropyrazino[1,2-a]indol-2(1H)-yl)-1-methyl-1H-indole-5-carboxylic acid] | 3400 | –
3 | Cc1cc(OCCCc2c3n(c4c(-c5c(C)nn(C)c5C)c(Cl)ccc24)[C@H](C)CN(c2cccc4cc(C(=O)O)ccc24)C3=O)cc(C)c1Cl [Example 187, (R)-5-(7-Chloro-10-(3-(4-chloro-3,5-dimethylphenoxy)propyl)-4-methyl-1-oxo-6-(1,3,5-trimethyl-1H-pyrazol-4-yl)-3,4-dihydropyrazino[1,2-a]indol-2(1H)-yl)-2-naphthoic acid] | – | GI50 [2]: < 200 nM
4 | Cc1cc(OCCCc2c3n(c4c(-c5c(C)ncnc5C)c(C)ccc24)[C@H](C)CN(c2cccc4cc(C(=O)O)n(Cc5ccccn5)c24)C3=O)cc(C)c1Cl (atropisomer, axis not shown) [Example 276, (R)-7-(10-(3-(4-chloro-3,5-dimethylphenoxy)propyl)-6-(4,6-dimethylpyrimidin-5-yl)-4,7-dimethyl-1-oxo-3,4-dihydropyrazino[1,2-a]indol-2(1H)-yl)-1-(pyridin-2-ylmethyl)-1H-indole-2-carboxylic acid] | – | GI50 [2]: 290 nM
5 | Cc1cc(OCCCc2c3n(c4c(-c5c(C)nn(C)c5C)c(Cl)ccc24)CCCN(c2cn(C)c4cc(C(=O)O)ccc24)C3=O)cc(C)c1Cl [Example 68, 3-(8-Chloro-11-(3-(4-chloro-3,5-dimethylphenoxy)propyl)-1-oxo-7-(1,3,5-trimethyl-1H-pyrazol-4-yl)-4,5-dihydro-1H-[1,4]diazepino[1,2-a]indol-2(3H)-yl)-1-methyl-1H-indole-6-carboxylic acid] | 350 | –
6 | Cc1cc(OCCCc2c3n(c4c(-c5c(C)nn(C)c5C)c(Cl)ccc24)[C@H](C)CN(c2cn(C)c4ccc(C(=O)O)cc24)C3=O)cc(C)c1Cl [Example 76, (R)-3-(7-Chloro-10-(3-(4-chloro-3,5-dimethylphenoxy)propyl)-4-methyl-1-oxo-6-(1,3,5-trimethyl-1H-pyrazol-4-yl)-3,4-dihydropyrazino[1,2-a]indol-2(1H)-yl)-1-methyl-1H-indole-5-carboxylic acid] | < 200 | –
7 | COCCn1c(C(=O)O)cc2cc(C)cc(N3C[C@@H](C)n4c(c(CCCOc5cc(C)c(Cl)c(C)c5)c5ccc(Cl)c(-c6c(C)nc(CN7CCN(C)C(=O)C7)nc6C)c54)C3=O)c21 [Example 729, (R)-7-(7-chloro-10-(3-(4-chloro-3,5-dimethylphenoxy)propyl)-6-(4,6-dimethyl-2-((4-methyl-3-oxopiperazin-1-yl)methyl)pyrimidin-5-yl)-4-methyl-1-oxo-3,4-dihydropyrazino[1,2-a]indol-2(1H)-yl)-1-(2-methoxyethyl)-5-methyl-1H-indole-2-carboxylic acid] | 260 | –
8 | COc1ccc(N2C[C@@H](C)n3c(c(CCCOc4cc(C)c(Cl)c(C)c4)c4ccc(Cl)c(-c5c(C)nc(CN6CCN(C)CC6)nc5C)c43)C2=O)c2c1cc(C(=O)O)n2Cc1ccccn1 [Example 492, (R)-7-(7-Chloro-10-(3-(4-chloro-3,5-dimethylphenoxy)propyl)-6-(4,6-dimethyl-2-((4-methylpiperazin-1-yl)methyl)pyrimidin-5-yl)-4-methyl-1-oxo-3,4-dihydropyrazino[1,2-a]indol-2(1H)-yl)-4-methoxy-1-(pyridin-2-ylmethyl)-1H-indole-2-carboxylic acid] | 360 | –
9 | COc1ccc(N2C[C@@H](C)n3c(c(CCCOc4cc(C)c(Cl)c(C)c4)c4ccc(Cl)c(-c5c(C)nn(C)c5C)c43)C2=O)c2c1c(C(=O)O)cn2Cc1cccc(C)n1 [Example 621, (R)-7-(7-chloro-10-(3-(4-chloro-3,5-dimethylphenoxy)propyl)-4-methyl-1-oxo-6-(1,3,5-trimethyl-1H-pyrazol-4-yl)-3,4-dihydropyrazino[1,2-a]indol-2(1H)-yl)-4-methoxy-1-((6-methylpyridin-2-yl)methyl)-1H-indole-3-carboxylic add] | – | GI50 (H929 cells, 72 h, Cell TiterGlo, 10% FBS, read-out: GI50 on cellular proliferation of H929 human cancer cell lines): 390 nM
10 | Cc1cc(OCCCc2c3n(c4c(-c5c(C)nn(C)c5C)c(Cl)ccc24)CCCN(c2ccc(C(=O)O)c4ccn(C)c24)C3=O)cc(C)c1Cl [Example 55, 7-(8-Chloro-11-(3-(4-chloro-3,5-dimethylphenoxy)propyl)-1-oxo-7-(1,3,5-trimethyl-1H-pyrazol-4-yl)-4,5-dihydro-1H-[1,4]diazepino[1,2-a]indol-2(3H)-yl)-1-methyl-1H-indole-4-carboxylic acid] | 5700 | –
11 | Cc1cc(OCCCc2c3n(c4c(-c5c(C)nn(C)c5C)c(Cl)ccc24)CCCN(c2cc(C(=O)O)c4ccn(C)c4c2)C3=O)cc(C)c1Cl (single isomer, unassigned) [Example 431, 6-(8-Chloro-11-(3-(4-chloro-3,5-dimethylphenoxy)propyl)-1-oxo-7-(1,3,5-trimethyl-1H-pyrazol-4-yl)-4,5-dihydro-1H-[1,4]diazepino[1,2-a]indol-2(3H)-yl)-1-methyl-1H-indole-4-carboxylic acid] | 2900 | –
12 | Cc1cc(OCCCc2c3n(c4c(-c5c(C)nn(C)c5C)c(Cl)ccc24)CCCN(c2cn(C)c4ccc(C(=O)O)cc24)C3=O)cc(C)c1Cl [Example 80, 3-(8-Chloro-11-(3-(4-chloro-3,5-dimethylphenoxy)propyl)-1-oxo-7-(1,3,5-trimethyl-1H-pyrazol-4-yl)-4,5-dihydro-1H-[1,4]diazepino[1,2-a]indol-2(3H)-yl)-1-methyl-1H-indole-5-carboxylic acid] | 250 | –
13 | Cc1cc(N2C[C@@H](C)n3c(c(CCCOc4cc(C)c(Cl)c(C)c4)c4ccc(Cl)c(-c5c(C)nn(C)c5C)c43)C2=O)c2c(c1)cc(C(=O)O)n2CCN1CCOCC1 [Example 597, (R)-7-(7-chloro-10-(3-(4-chloro-3,5-dimethylphenoxy)propyl)-4-methyl-1-oxo-6-(1,3,5-trimethyl-1H-pyrazol-4-yl)-3,4-dihydropyrazino[1,2-a]indol-2(1H)-yl)-5-methyl-1-(2-morpholinoethyl)-1H-indole-2-carboxylic acid] | 690 | –
14 | Cc1cc(OCCCc2c3n(c4c(-c5c(C)n[nH]c5C)c(Cl)ccc24)[C@H](C)CN(c2cccc4c(C(=O)O)cn(C)c24)C3=O)cc(C)c1Cl [Example 108, (R)-7-(7-chloro-10-(3-(4-chloro-3,5-dimethylphenoxy)propyl)-6-(3,5-dimethyl-1H-pyrazol-4-yl)-4-methyl-1-oxo-3,4-dihydropyrazino[1,2-a]indol-2(1H)-yl)-1-methyl-1H-indole-3-carboxylic acid] | 880 | –
15 | Cc1cc(OCCCc2c3n(c4c(-c5c(C)nn(C)c5C)c(Cl)ccc24)[C@H](C)CN(c2cc(N(C)C(=O)CN4CCCCC4)cc4c(C(=O)O)cn(C)c24)C3=O)cc(C)c1Cl [Example 612, (R)-7-(7-chloro-10-(3-(4-chloro-3,5-dimethylphenoxy)propyl)-4-methyl-1-oxo-6-(1,3,5-trimethyl-1H-pyrazol-4-yl)-3,4-dihydropyrazino[1,2-a]indol-2(1H)-yl)-1-methyl-5-(N-methyl-2-(piperidin-1-yl)acetamido)-1H-indole-3-carboxylic acid] | 7600 | –
16 | Cc1cc(OCCCc2c3n(c4c(-c5c(C)nn(C)c5C)c(Cl)ccc24)CCCN(Cc2cc(C(=O)O)ccn2)C3=O)cc(C)c1Cl [Example 43, 2-((8-Chloro-11-(3-(4-chloro-3,5-dimethylphenoxy)propyl)-1-oxo-7-(1,3,5-trimethyl-1H-pyrazol-4-yl)-4,5-dihydro-1H-[1,4]diazepino[1,2-a]indol-2(3H)-yl)methyl)isonicotinic acid] | 9400 | –
17 | COc1ccc(N2C[C@@H](C)n3c(c(CCCOc4cc(C)c(Cl)c(C)c4)c4ccc(Cl)c(-c5c(C)nn(C)c5C)c43)C2=O)c2c1c(C(=O)O)cn2Cc1cccc(C)n1 [Example 622, (R)-7-(7-chloro-10-(3-(4-chloro-3,5-dimethylphenoxy)propyl)-4-methyl-1-oxo-6-(1,3,5-trimethyl-1H-pyrazol-4-yl)-3,4-dihydropyrazino[1,2-a]indol-2(1H)-yl)-4-methoxy-1-((6-methylpyridin-2-yl)methyl)-1H-indole-3-carboxylic acid] | 920 | –
18 | Cc1cccc(Cn2c(C(=O)O)cc3cc(OCCN(C)C)cc(N4C[C@@H](C)n5c(c(CCCOc6cc(C)c(Cl)c(C)c6)c6ccc(Cl)c(-c7c(C)nn(C)c7C)c65)C4=O)c32)n1 [Example 592, (R)-7-(7-chloro-10-(3-(4-chloro-3,5-dimethylphenoxy)propyl)-4-methyl-1-oxo-6-(1,3,5-trimethyl-1H-pyrazol-4-yl)-3,4-dihydropyrazino[1,2-a]indol-2(1H)-yl)-5-(2-(dimethylamino)ethoxy)-1-((6-methylpyridin-2-yl)methyl)-1H-indole-2-carboxylic acid] | 880 | –

Reference: patent publication US11596639B2, “Substituted indole Mcl-1 inhibitors” (Vanderbilt University, priority 2016, dated 2023)
